Test results taken from patent US11747325B2, “Bleomycin for mimicking the effect of ionizing radiations on T cells” (Novagray, priority 2018, dated 2023).

How the values were obtained:
T lymphocytes [1] = assay: Bleomycin-induced CD8 T-lymphocyte apoptosis, treatment from the start of blood cell culture (at least 50 hours contact), flow cytometry; type: cell-based, human; details: for T lymphocytes apoptosis rate, from the start of cell culture: same blood sample, 8 Gy irradiation control 28.2%
Experimental: (§1) Blood samples were purchased from Etablissement Français du Sang (EFS) with the convention number 21PLER2016-0100 AV01. Blood samples were collected from healthy donors in 5 mL heparinized tubes without separation gel.
(§2) Blood cells were grown in RPMI-1640 with glutamax (Fisher scientific, France) supplemented with 20% fetal calf serum (FCS) (EuroBio, France). Cells were maintained at 37° C. with 5% CO2 during the experiments.
(§3) Bleomycin (EuroMedex) was solubilized in sterile MilliQ water at 50 mg/mL according to manufacturer instructions and stored at −80° C.
(§4) Samples were then centrifuged for 5 min at 300 g. The pellets were resuspended in phosphate-buffered saline (PBS) containing 10 μl of anti-human CD8-FITC antibody (Becton Dickinson, USA) and incubated for 20 minutes at room temperature. Then, red blood cells were lysed by addition of 4 ml of lysis buffer diluted 1:10 in water (Becton Dickinson, USA). After another 20 minutes incubation time at room temperature, samples were centrifuged for 5 min at 300 g and the pellets were washed with 3 ml of PBS. Pellets were suspended in 200 μl of PBS containing 25 μg/ml of propidium iodide (Sigma, France) and 5 μl of RNAse A at 10 mg/ml (Qiagen, France). The samples were analyzed by flow cytometry within the next hours, using the CytoFlex (Beckman Coulter, USA). […]
Two hundred microliters of blood were aliquoted into a 6-well plate containing 2 mL of RPMI-20% FCS-bleomycin, about 24 hours after blood collection. The cell culture media containing the different concentrations of bleomycin were made fresh just before starting the cell culture. After bleomycin incubation with blood cells for at least 50 hours (generally more than about 60 hours, in particular between 65 and 75 hours), samples were stained for flow cytometry analysis as described above.
(§5) Two treatment conditions were tested on the same blood sample: blood cells were treated by several bleomycin concentrations 24 hours after cell culture or from the start of cell culture. A control experiment was performed by irradiating blood samples at 8 Gy.

T lymphocytes [2] = assay: Bleomycin-induced CD8 T-lymphocyte apoptosis, treatment 24 hours after blood cell culture (less than 50 hours contact), flow cytometry; type: cell-based, human; details: for T lymphocytes apoptosis rate, 24 hours after cell culture: staining 48 hours after treatment, same blood sample, 8 Gy control 28.2%
Experimental: as §1, §2, §3, §4
Two hundred microliters of blood were aliquoted into a 6-well plate containing 2 mL of RPMI-20% FCS, about 24 hours after blood collection. Bleomycin treatment, at the different concentrations, was performed 24 hours after blood cell culture by adding the Bleomycin directly into the wells. The staining for detecting apoptosis was performed as described above and 48 hours after the bleomycin treatment (thus, after less than 50 hours of contact of bleomycin with the cells). • Treatment during blood cell culture:
as §5

Substance: Bleomycin
- T lymphocytes apoptosis rate, from the start of cell culture (T lymphocytes [1]; bleomycin 50 μg/mL): 12.47%
- T lymphocytes apoptosis rate, from the start of cell culture (T lymphocytes [1]; bleomycin 100 μg/ml): 19.14%
- T lymphocytes apoptosis rate, from the start of cell culture (T lymphocytes [1]; bleomycin 200 μg/ml): 23.44%
- T lymphocytes apoptosis rate, from the start of cell culture (T lymphocytes [1]; bleomycin 300 μg/ml): 26.32%
- T lymphocytes apoptosis rate, from the start of cell culture (T lymphocytes [1]; bleomycin 400 μg/ml): 30.68%
- Bleomycin concentration achieving the apoptosis rate obtained after 8 Gy irradiation (T lymphocytes [1]; treatment applied at the start of blood cell culture): lower than 300 μg/ml
- T lymphocytes apoptosis rate, 24 hours after cell culture (T lymphocytes [2]; bleomycin 50 μg/mL): 3.98%
- T lymphocytes apoptosis rate, 24 hours after cell culture (T lymphocytes [2]; bleomycin 100 μg/ml): 2.72%
- T lymphocytes apoptosis rate, 24 hours after cell culture (T lymphocytes [2]; bleomycin 200 μg/ml): 10.13%
- T lymphocytes apoptosis rate, 24 hours after cell culture (T lymphocytes [2]; bleomycin 300 μg/ml): 11.9%
- T lymphocytes apoptosis rate, 24 hours after cell culture (T lymphocytes [2]; bleomycin 400 μg/ml): 16.78%
- Whether the apoptosis rate observed after 8 Gy irradiation is induced (T lymphocytes [2]; treatment 24 hours after blood cell culture, applied for less than 50 hours, 50 to 500 μg/mL): no bleomycin concentration, applied for less than 50 hours, induces the apoptosis rate observed after 8 Gy irradiation
